Here are results for 21 molecules from patent US4525358A, “2-[4-(Diphenylmethyl)-1-piperazinyl]-acetic acids and their amides” (UCB Pharmaceuticals, Inc., priority 1981, dated 1985).

Where two headings read alike, the source gives them in different places.

Data set [1] relates to bronchospasms induced by serotonin. The experiment in a line: inhibition of serotonin-induced bronchospasms (Konzett and Roessler), spasmolytic activity. The settings on record: for ED50: Cavia porcellus, iv, read-out: ID 50, inhibition of bronchospasms induced by serotonin. The data set is classed as in vivo, guinea pig. The method, then: (§1) Anaesthetized and curarized guinea pigs are subjected to artificial ventilation. The endotracheal pressure is recorded. Repetitive bronchial spasms are induced by successive and progressive intravenous injections of serotonin and histamine, respectively. The test compounds are also administered intravenously.

Data set [2] deals with bronchospasms induced by histamine. The experiment in a line: inhibition of histamine-induced bronchospasms (Konzett and Roessler), antihistaminic activity. Type of data set: in vivo, guinea pig. The settings on record: for ED50: Cavia porcellus, iv, read-out: ID 50, inhibition of bronchospasms induced by histamine. As to the method: as §1
Another data set has as its system mice. Conditions: intraperitoneal, two animals out of three.
Data set [3] has as its system passive cutaneous anaphylaxis. The experiment in a line: passive cutaneous anaphylaxis test (PCA), antiallergic activity. The settings on record: rats, per os; for ED50: Rattus norvegicus, po, 15 minutes before allergen, read-out: ID 50 per os (reduction of 50% of the surface area of the colored spot). The data set is classed as in vivo. The method, then: This activity is determined in rats by means of the passive cutaneous anaphylaxis test (PCA) (see J. GOOSE and A. M. J. N. BlAIR, Immunology, 16, (1969), 749-760; and […] and D. ROEMER, Arzneimittel-Forschung, 28, (5), (1978), 770-782). Female rats are used, the sides of which have been partly shaved. Into the zone thus shaved there is injected intradermally, for passive sensitization of the animals, 0.05 ml of IGE antiovalbumin serum at a dilution such that, at the time of the PCA test, a distinct spot with a surface area of about 100 mm^2 appears at the point of injection. […] At the point of intradermal injection, there appears a distinct blue spot, the surface of which is measured. In order to test the activity of the compounds according to the present invention, the procedure is carried out in the same manner; however, the test compound is administered orally 72 hours after injection of the serum; 15 minutes after this administration, 0.25 ml of the solution of the allergen is injected intravenously; 30 minutes after the administration of the allergen, the surface of the blue spot is measured.

Data set [4] concerns general behaviour of mice. The data set is described as follows: general behaviour of mice (Irwin's test), tranquilization. The data set is classed as in vivo.
For data set [5] the following is noted: Belgian Patent Specification No. 763,609; cited from earlier work.
For data set [6] the following is noted: J. med. Chem. 11 (1968), 390-391; cited from earlier work.
[7] abbreviates: guinea pig, intravenous, serotonin.
The mark [8] stands for this setting: guinea pig, intravenous, histamine.

As to `NC(=O)COCCN1CCN(C(c2ccccc2)c2ccccc2)CC1` [A, 2-[2-[4-(Diphenylmethyl)-1-piperazinyl]ethoxy]-acetamide], the results for the ED50 in data set [1] (setting [7]) and in data set [2] (setting [8]) were 0.78 µmol/kg and 0.23 µmol/kg, respectively. Also, the “Lethal dose (2/3)” value in the data set with mice came to 255 mg/kg.

For the molecule `NC(=O)COCCN1CCN(C(c2ccccc2)c2ccc(Cl)cc2)CC1` (centres unmarked) [B, 2-[2-[4-[(4-chlorophenyl)phenylmethyl]-1-piperazinyl]ethoxy]-acetamide], the ED50 in data set [3] came to 36.5 µmol/kg; in data set [1] (setting [7]), 0.88 µmol/kg; in data set [2] (setting [8]), 0.45 µmol/kg. Further, the “Tranquilizing dose (first manifestations of tranquilization)” value (“Tranquilizing dose” for short) in data set [4] (male mice, intraperitoneal) is 38.7 mg/kg. For the same molecule, the “Lethal dose (2/3)” value in the data set with mice is on record as 232 mg/kg.

As to `NC(=O)COCCN1CCN(C(c2ccccc2)c2ccc(F)cc2)CC1` (centres unmarked) [C, 2-[2-[4-[(4-fluorophenyl)phenylmethyl]-1-piperazinyl]ethoxy]-acetamide], the ED50 in data set [3] turned out to be 18.9 µmol/kg; in data set [1] (setting [7]) it was 0.94 µmol/kg; in data set [2] (setting [8]), 0.71 µmol/kg. Moreover, the “Tranquilizing dose” value in data set [4] (male mice, intraperitoneal) was determined as 115 mg/kg. For the same molecule, the “Lethal dose (2/3)” value in the data set on mice is on record as 386 mg/kg.

As for `NC(=O)CN1CCN(C(c2ccccc2)c2ccccc2)CC1` [Compound 1, 2-[4-(diphenylmethyl)-1-piperazinyl]-acetamide, reference compound], in data set [3], the ED50 was over 320 µmol/kg and the “antiallergic activity (PCA), in words” value is given as “of little interest”. Besides, in data set [1] (setting [7]), the ED50 is 77 µmol/kg and the “activity with regard to bronchospasms induced by serotonin (antispasmodic), in words” value (from here on “activity with regard … (antispasmodic), in words”) is “considerbly less active”. Moreover, in data set [2] (setting [8]), the ED50 worked out at 2.1 µmol/kg and the “activity with regard to bronchospasms induced by histamine (antihistaminic), in words” value (“activity … (antihistaminic), in words” below) was “considerbly less active”. In addition, the diuretic activity result in data set [5] was “possesses a diuretic activity”.

Regarding `NC(=O)CN1CCN(C(c2ccccc2)c2ccc(Cl)cc2)CC1` (centres unmarked) [Compound 2, 2-[4-[(4-chlorophenyl)phenylmethyl]-1-piperazinyl]-acetamide, reference compound], in data set [3], the ED50 is over 320 µmol/kg and the “antiallergic activity (PCA), in words” value is on record as “of little interest”. Also, in data set [1] (setting [7]), the ED50 was 11 µmol/kg and the “activity with regard … (antispasmodic), in words” value is reported as “considerbly less active”. In addition, in data set [2] (setting [8]), the ED50 is 3.1 µmol/kg and the “activity … (antihistaminic), in words” value is reported as “considerbly less active”. Also, in data set [6], the “activity as a hypocholesteremic agent” value was “not very encouraging”.

Turning to `O=C(O)CN1CCN(C(c2ccccc2)c2ccccc2)CC1` [Compound 3, 2-[4-(diphenylmelthyl)-1-piperazinyl]-acetic acid, reference compound], in data set [3], the ED50 was over 320 µmol/kg and the “antiallergic activity (PCA), in words” value was “of little interest”. Moreover, in data set [1] (setting [7]), the ED50 was over 32 µmol/kg and the “activity with regard … (antispasmodic), in words” value was “considerbly less active”. In addition, in data set [2] (setting [8]), the ED50 was 5 µmol/kg and the “activity … (antihistaminic), in words” value is recorded as “considerbly less active”.

Regarding `O=C(O)CN1CCN(C(c2ccccc2)c2ccc(Cl)cc2)CC1` (centres unmarked) [Compound 4, reference compound], in data set [3], the ED50 is over 320 µmol/kg and the “antiallergic activity (PCA), in words” value was “of little interest”. Besides, in data set [1] (setting [7]), the ED50 is over 32 µmol/kg and the “activity with regard … (antispasmodic), in words” value is “considerbly less active”. In addition, in data set [2] (setting [8]), the ED50 is 7.8 µmol/kg and the “activity … (antihistaminic), in words” value is “considerbly less active”.

Consider `Cl.Cl.NC(=O)COCCN1CCN(C(c2ccccc2)c2ccccc2Cl)CC1` (centres unmarked) [D, 2-[2-[4-[(2-chlorophenyl)phenylmethyl]-1-piperazinyl]ethoxy]-acetamide dihydrochloride], for which the ED50 in data set [1] (setting [7]) was 1.1 µmol/kg; in data set [2] (setting [8]) it was 0.63 µmol/kg. In data set [4] (male mice, intraperitoneal), the “Tranquilizing dose” value is over 460 mg/kg. In the data set on mice, the “Lethal dose (2/3)” value is 460 mg/kg.

For the molecule `COc1ccc(C(c2ccccc2)N2CCN(CCOCC(N)=O)CC2)cc1.Cl.Cl` (centres unmarked) [E, 2-[2-[4-[(4-methoxyphenyl)phenylmethyl]-1-piperazinyl]ethoxy]-acetamide dihydrochloride], the figures for the ED50 in data set [1] (setting [7]) and in data set [2] (setting [8]) were 10 µmol/kg and 0.67 µmol/kg, respectively. For the same molecule, the “Tranquilizing dose” value in data set [4] (male mice, intraperitoneal) was 136 mg/kg. Moreover, the “Lethal dose (2/3)” value in the data set on mice is 456 mg/kg.

Take `Cl.Cl.NC(=O)COCCOCCN1CCN(C(c2ccccc2)c2ccccc2)CC1` [F, 2-[2-[2-[4-(Diphenylmethyl)-1-piperazinyl]ethoxy]ethoxy]-acetamide dihydrochloride]: the ED50 in data set [3] was determined as 10.6 µmol/kg; in data set [1] (setting [7]), 0.32 µmol/kg; in data set [2] (setting [8]), 0.25 µmol/kg. Further, the “Tranquilizing dose” value in data set [4] (male mice, intraperitoneal) is recorded as 94 mg/kg. In addition, the “Lethal dose (2/3)” value in the data set with mice was 282 mg/kg.

As to `Cl.Cl.NC(=O)COCCOCCN1CCN(C(c2ccccc2)c2ccc(Cl)cc2)CC1` (centres unmarked) [G, 2-[2-[2-[4-[(4-chlorophenyl)phenylmethyl]-1-piperazinyl]ethoxy]ethoxy]-acetamide dihydrochloride], the figures for the ED50 in data set [1] (setting [7]) and in data set [2] (setting [8]) were 0.66 µmol/kg and 1.14 µmol/kg, respectively. For the same molecule, the “Tranquilizing dose” value in data set [4] (male mice, intraperitoneal) is listed as 34 mg/kg. For the same molecule, the “Lethal dose (2/3)” value in the data set on mice turned out to be 339 mg/kg.

Take `O=C([O-])COCCN1CCN(C(c2ccccc2)c2ccc(Cl)cc2)CC1.[K+]` (centres unmarked) [H, potassium 2-[2-[4-[(4-chlorophenyl)phenylmethyl]-1-piperazinyl]ethoxy]-acetate]: the ED50 amounted to 7 µmol/kg in data set [1] and 0.23 µmol/kg in data set [2]. Also, the “Tranquilizing dose” value in data set [4] (male mice, intraperitoneal) was determined as 46.2 mg/kg.

Consider `OCCOCCN1CCN(C(c2ccccc2)c2ccc(Cl)cc2)CC1` (centres unmarked) [Hydroxyzine, 2-[2-[4-[(4-chlorophenyl)phenylmethyl]-1-piperazinyl]-ethoxy]-ethanol, reference compound], for which the “Tranquilizing dose” value in data set [4] (mouse, in vivo, ip) was determined as 27 mg/kg.

Turning to `O=C(O)COCCN1CCN(C(c2ccccc2)c2ccc(Cl)cc2)CC1` (centres unmarked) [I, 2-[2-[4-[(4-chlorophenyl)phenylmethyl]-1-piperazinyl]ethoxy]-acetic acid], the ED50 in data set [1] (setting [7]) stood at 9.44 µmol/kg; in data set [2] (setting [8]) it was 0.205 µmol/kg.

Consider `O=C(O)COCCN1CCN(C(c2ccccc2)c2ccc(Cl)cc2)CC1` (centres unmarked) [J, 2-[2-[4-[(4-chlorophenyl)phenylmethyl]-1-piperazinyl]ethoxy]-acetic acid], for which, in data set [1] (setting [7]), the “ID 50, inhibition of bronchospasms induced by serotonin” value was determined as 7.3 µmol/kg. Moreover, the antihistaminic activity retained in data set [2] (guinea pig, intravenous, 1 μmol/kg single dose, after 5 hours) is listed as 100%. Besides, in data set [2] (setting [8]), the “ID 50, inhibition of bronchospasms induced by histamine” value was found to be 0.20 µmol/kg. Moreover, in data set [4] (male mice, intraperitoneal), the “Tranquilizing dose” value is on record as 138 mg/kg.

`O=C(O)COCCN1CCN(C(c2ccccc2)c2ccccc2)CC1` [K, 2-[2-[4-(diphenylmethyl)-1-piperazinyl]ethoxy]-acetic acid]: the ED50 in data set [1] (setting [7]) amounted to 9.5 µmol/kg; in data set [2] (setting [8]), 0.093 µmol/kg. Besides, the “Tranquilizing dose” value in data set [4] (male mice, intraperitoneal) is reported as 106 mg/kg. Besides, the “Lethal dose (2/3)” value with mice is on record as 708 mg/kg.

With `Cl.Cl.O=C(O)COCCOCCN1CCN(C(c2ccccc2)c2ccccc2)CC1` [L, 2-[2-[2-[4-(diphenylmethyl)-1-piperazinyl]ethoxy]ethoxy]-acetic acid dihydrochloride], the values for the ED50 in data set [1] (setting [7]) and in data set [2] (setting [8]) were 5.69 µmol/kg and 0.39 µmol/kg, respectively. Besides, the “Tranquilizing dose” value in data set [4] (male mice, intraperitoneal) was determined as 141 mg/kg. Also, the “Lethal dose (2/3)” value with mice was 942 mg/kg.

As to `Cl.Cl.O=C(O)COCCOCCN1CCN(C(c2ccccc2)c2ccc(Cl)cc2)CC1` (centres unmarked) [M, 2-[2-[2-[4-[(4-chlorophenyl)phenylmethyl]-1-piperazinyl]ethoxy]ethoxy]-acetic acid dihydrochloride], the ED50 was 10 µmol/kg in data set [1] (setting [7]) and 0.79 µmol/kg in data set [2] (setting [8]). Moreover, the “Tranquilizing dose” value in data set [4] (male mice, intraperitoneal) is recorded as 505 mg/kg. Besides, the “Lethal dose (2/3)” value with mice stood at 505 mg/kg.

As to `O.O=C(O)COCCN1CCN(C(c2ccccc2)c2ccc(F)cc2)CC1` (centres unmarked) [N, 2-[2-[4-[(4-fluorophenyl)phenylmethyl]-1-piperazinyl]ethoxy]-acetic acid hydrate], the figures for the ED50 in data set [3], in data set [1] (setting [7]) and in data set [2] (setting [8]) were 10.2 µmol/kg, 2.1 µmol/kg and 0.08 µmol/kg, respectively. In data set [4] (male mice, intraperitoneal), the “Tranquilizing dose” value amounted to 372 mg/kg. Also, the “Lethal dose (2/3)” value in the data set with mice was found to be 372 mg/kg.

As to `O=C1Nc2ccc(Cl)cc2C(c2ccccc2)=NC1O` (centres unmarked) [Oxazepam, 7-chloro-1,3-dihydro-3-hydroxy-5-phenyl:2H-1,4-benzodiazepin-2-one, reference compound], in data set [4] (male mice, intraperitoneal), the “Tranquilizing dose” value amounted to 2.6 mg/kg.

As to `Cn1c(=O)c2[nH]cnc2n(C)c1=O` [Theophylline, reference compound], the ED50 in data set [1] and in data set [2] was 10 µmol/kg each time.
